Measured values reported in patent US11912703B2, “6-azaindole compounds” (BRISTOL-MYERS SQUIBB COMPANY, priority 2017, dated 2024).

Molecular target: human TLR7 (Homo sapiens (Human), UniProt Q9NYK1)
Test: TLR7 inhibition reporter assay (HEK-Blue SEAP)
Type: cell-based
Details: HEK-Blue cells overexpressing human TLR7, gardiquimod 7.5 μM stimulation

Sequence of human TLR7 (Q9NYK1 27-1049): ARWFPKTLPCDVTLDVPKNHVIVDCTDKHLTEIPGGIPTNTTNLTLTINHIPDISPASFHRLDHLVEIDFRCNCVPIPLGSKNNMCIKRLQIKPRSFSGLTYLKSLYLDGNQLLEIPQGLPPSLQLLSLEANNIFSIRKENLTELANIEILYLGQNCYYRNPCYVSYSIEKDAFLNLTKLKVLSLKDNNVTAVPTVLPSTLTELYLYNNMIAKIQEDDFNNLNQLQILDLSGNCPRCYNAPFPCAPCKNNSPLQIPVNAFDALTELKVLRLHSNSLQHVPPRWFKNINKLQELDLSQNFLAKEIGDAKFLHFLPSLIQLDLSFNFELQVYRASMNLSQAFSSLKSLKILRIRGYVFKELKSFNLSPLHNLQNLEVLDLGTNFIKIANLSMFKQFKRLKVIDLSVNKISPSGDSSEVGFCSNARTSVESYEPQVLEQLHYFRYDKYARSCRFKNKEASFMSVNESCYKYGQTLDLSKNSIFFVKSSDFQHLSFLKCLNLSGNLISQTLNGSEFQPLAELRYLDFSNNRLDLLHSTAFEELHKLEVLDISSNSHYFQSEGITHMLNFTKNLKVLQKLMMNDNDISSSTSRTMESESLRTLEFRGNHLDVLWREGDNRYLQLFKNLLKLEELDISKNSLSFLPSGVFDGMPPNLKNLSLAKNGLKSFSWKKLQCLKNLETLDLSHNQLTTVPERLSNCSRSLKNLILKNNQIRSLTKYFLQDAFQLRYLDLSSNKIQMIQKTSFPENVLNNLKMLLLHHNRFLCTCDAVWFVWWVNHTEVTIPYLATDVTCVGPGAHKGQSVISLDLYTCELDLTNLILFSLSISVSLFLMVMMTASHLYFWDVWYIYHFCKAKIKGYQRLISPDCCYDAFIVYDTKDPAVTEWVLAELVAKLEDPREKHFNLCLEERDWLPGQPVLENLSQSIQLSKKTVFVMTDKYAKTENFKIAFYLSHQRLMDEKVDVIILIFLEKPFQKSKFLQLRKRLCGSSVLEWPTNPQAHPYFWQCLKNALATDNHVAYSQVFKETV

Compound	IC50 [nM]
Cc1cc(-c2[nH]c3cnc(C4CCC(N(C)C(C)C)CC4)c(F)c3c2C(C)C)cn2ncnc12 (stereo not drawn) [Example 261]	0.61
COCCN1CCN(c2ncc3[nH]c(-c4cn5ncnc5c(C)c4C)c(C(C)C)c3c2F)CC1 [Example 424]	6.3
COc1cc(-c2[nH]c3cnc(C4CCC(N(C)C5COC5)CC4)c(F)c3c2C(C)C)cn2ncnc12 (stereo not drawn) [Example 197]	0.3
COc1cc(-c2[nH]c3cnc(C4CCC(NCC(C)(C)OC)C4)cc3c2C(C)C)cn2ncnc12 (stereo not drawn) [Example 179]	20
Cc1c(N2CCC(N3CCC3)CC2)ncc2[nH]c(-c3cc(C)c4ncnn4c3)c(C(C)C)c12 [Example 279]	0.65
Cc1cc(-c2[nH]c3cnc(N4CCC(N(C)CC(N)=O)CC4)c(F)c3c2C(C)C)cn2ncnc12 [Example 158]	1.4
CCN(C)C1CCC(c2cc3c(C(C)C)c(-c4cc(OC)c5ncnn5c4)[nH]c3cn2)CC1 (stereo not drawn) [Example 331]	263
COCCN1CCN(c2ncc3[nH]c(-c4cc(OC)c5ncnn5c4)c(C(C)C)c3c2F)[C@H](C)C1 [Example 444]	5
COc1cc(-c2[nH]c3cnc(N4CCC(NCC(C)(C)O)CC4)c(F)c3c2C(C)C)cn2ncnc12 [Example 156]	0.79
Cc1c(-c2[nH]c3cnc(C4CCC(NCC(C)(C)C)CC4)cc3c2C(C)C)cn2ncnc2c1C (stereo not drawn) [Example 337]	3.9
CNCC(=O)N1CCN(c2ncc3[nH]c(-c4cc(OC)c5ncnn5c4)c(C(C)C)c3c2Cl)CC1 [Example 291]	3
COc1cc(-c2[nH]c3cnc(C4CCN(CC(=O)N(C)C)CC4)cc3c2C(C)C)cn2ncnc12 [Example 298]	14
Cc1c(-c2[nH]c3cnc(C4CCC(N5CC6(COC6)C5)CC4)c(C)c3c2C(C)C)cn2ncnc2c1C (stereo not drawn) [Example 142]	13
Cc1c(-c2[nH]c3cnc(C4CCC(NC(C)C)CC4)c(F)c3c2C(C)C)cn2ncnc2c1C (stereo not drawn) [Example 136]	0.41
COc1cc(-c2[nH]c3cnc(C4CCC(N5CCC5)CC4)cc3c2C(C)C)cn2ncnc12 (stereo not drawn) [Example 324]	3
CNC(=O)CN1CCC(c2ncc3[nH]c(-c4cc(OC)c5ncnn5c4)c(C(C)C)c3c2F)CC1 [Example 20]	2.5
COc1cc(-c2[nH]c3cnc(N4CC5(CN(CC6CC6)C5)C4)c(F)c3c2C(C)C)cn2ncnc12 [Example 374]	6
COCCN1CCN(c2ncc3[nH]c(-c4cc(OC)c5ncnn5c4)c(C(C)C)c3c2C)CC1 [Example 126]	8.2
CNC(=O)CN1CCN(c2ncc3[nH]c(-c4cc(OC)c5ncnn5c4)c(C(C)C)c3c2F)CC1 [Example 359]	2.5

Molecular target: human TLR8 (Homo sapiens (Human), UniProt Q9NR97)
Sequence (Q9NR97 27-1041): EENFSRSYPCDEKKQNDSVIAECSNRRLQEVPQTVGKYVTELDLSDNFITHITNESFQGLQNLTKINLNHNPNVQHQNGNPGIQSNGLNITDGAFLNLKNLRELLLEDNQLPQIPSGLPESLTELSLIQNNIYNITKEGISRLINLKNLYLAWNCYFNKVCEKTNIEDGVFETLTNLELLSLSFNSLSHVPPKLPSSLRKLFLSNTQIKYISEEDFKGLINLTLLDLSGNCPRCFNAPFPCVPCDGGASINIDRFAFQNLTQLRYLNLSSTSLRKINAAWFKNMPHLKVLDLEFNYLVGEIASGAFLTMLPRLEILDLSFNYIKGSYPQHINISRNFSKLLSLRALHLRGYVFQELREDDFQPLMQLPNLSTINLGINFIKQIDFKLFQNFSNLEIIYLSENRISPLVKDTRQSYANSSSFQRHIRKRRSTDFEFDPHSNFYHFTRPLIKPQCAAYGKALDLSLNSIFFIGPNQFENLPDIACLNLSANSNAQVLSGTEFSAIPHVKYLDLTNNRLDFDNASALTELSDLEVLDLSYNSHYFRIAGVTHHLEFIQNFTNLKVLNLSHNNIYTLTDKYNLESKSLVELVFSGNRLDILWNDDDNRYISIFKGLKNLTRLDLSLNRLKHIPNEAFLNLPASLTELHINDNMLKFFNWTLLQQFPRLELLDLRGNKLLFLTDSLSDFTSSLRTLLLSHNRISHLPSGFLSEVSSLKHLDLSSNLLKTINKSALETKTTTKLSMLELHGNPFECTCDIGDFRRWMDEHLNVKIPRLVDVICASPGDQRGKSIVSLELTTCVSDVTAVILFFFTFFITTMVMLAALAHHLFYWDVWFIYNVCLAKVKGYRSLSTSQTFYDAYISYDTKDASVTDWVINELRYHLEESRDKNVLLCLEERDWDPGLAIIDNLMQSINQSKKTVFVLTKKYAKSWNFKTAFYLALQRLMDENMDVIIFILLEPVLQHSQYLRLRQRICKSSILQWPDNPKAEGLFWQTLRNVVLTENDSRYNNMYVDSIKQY
Test: TLR8 inhibition reporter assay (HEK-Blue SEAP);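 note: SEAP driven by IFN-β minimal promoter with five NF-κB and AP-1 sites, compounds tested 0.05 nM to 50 µM, 22 h incubation, inhibition relative to agonist plus DMSO wells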
Details: read-out: TLR8 IC50; HEK-Blue cells overexpressing human TLR8, R848 15.9 μM stimulation, SEAP reporter

Compound	IC50 [nM]
Cc1cc(-c2[nH]c3cnc(C4CCC(N(C)C(C)C)CC4)c(F)c3c2C(C)C)cn2ncnc12 (stereo not drawn) [Example 261]	1.1
COCCN1CCN(c2ncc3[nH]c(-c4cn5ncnc5c(C)c4C)c(C(C)C)c3c2F)CC1 [Example 424]	0.39
COc1cc(-c2[nH]c3cnc(C4CCC(N(C)C5COC5)CC4)c(F)c3c2C(C)C)cn2ncnc12 (stereo not drawn) [Example 197]	0.44
COc1cc(-c2[nH]c3cnc(C4CCC(NCC(C)(C)OC)C4)cc3c2C(C)C)cn2ncnc12 (stereo not drawn) [Example 179]	7
Cc1c(N2CCC(N3CCC3)CC2)ncc2[nH]c(-c3cc(C)c4ncnn4c3)c(C(C)C)c12 [Example 279]	1.5
Cc1cc(-c2[nH]c3cnc(N4CCC(N(C)CC(N)=O)CC4)c(F)c3c2C(C)C)cn2ncnc12 [Example 158]	2.1
CCN(C)C1CCC(c2cc3c(C(C)C)c(-c4cc(OC)c5ncnn5c4)[nH]c3cn2)CC1 (stereo not drawn) [Example 331]	637
COCCN1CCN(c2ncc3[nH]c(-c4cc(OC)c5ncnn5c4)c(C(C)C)c3c2F)[C@H](C)C1 [Example 444]	6.7
COc1cc(-c2[nH]c3cnc(N4CCC(NCC(C)(C)O)CC4)c(F)c3c2C(C)C)cn2ncnc12 [Example 156]	0.26
Cc1c(-c2[nH]c3cnc(C4CCC(NCC(C)(C)C)CC4)cc3c2C(C)C)cn2ncnc2c1C (stereo not drawn) [Example 337]	4
CNCC(=O)N1CCN(c2ncc3[nH]c(-c4cc(OC)c5ncnn5c4)c(C(C)C)c3c2Cl)CC1 [Example 291]	4.9
COc1cc(-c2[nH]c3cnc(C4CCN(CC(=O)N(C)C)CC4)cc3c2C(C)C)cn2ncnc12 [Example 298]	75
Cc1c(-c2[nH]c3cnc(C4CCC(N5CC6(COC6)C5)CC4)c(C)c3c2C(C)C)cn2ncnc2c1C (stereo not drawn) [Example 142]	39
Cc1c(-c2[nH]c3cnc(C4CCC(NC(C)C)CC4)c(F)c3c2C(C)C)cn2ncnc2c1C (stereo not drawn) [Example 136]	0.32
COc1cc(-c2[nH]c3cnc(C4CCC(N5CCC5)CC4)cc3c2C(C)C)cn2ncnc12 (stereo not drawn) [Example 324]	20
CNC(=O)CN1CCC(c2ncc3[nH]c(-c4cc(OC)c5ncnn5c4)c(C(C)C)c3c2F)CC1 [Example 20]	4.3
COc1cc(-c2[nH]c3cnc(N4CC5(CN(CC6CC6)C5)C4)c(F)c3c2C(C)C)cn2ncnc12 [Example 374]	39
COCCN1CCN(c2ncc3[nH]c(-c4cc(OC)c5ncnn5c4)c(C(C)C)c3c2C)CC1 [Example 126]	3.2
CNC(=O)CN1CCN(c2ncc3[nH]c(-c4cc(OC)c5ncnn5c4)c(C(C)C)c3c2F)CC1 [Example 359]	2.7

Molecular target: human TLR9 (Homo sapiens (Human), UniProt Q9NR96)
Sequence (Q9NR96 26-1032): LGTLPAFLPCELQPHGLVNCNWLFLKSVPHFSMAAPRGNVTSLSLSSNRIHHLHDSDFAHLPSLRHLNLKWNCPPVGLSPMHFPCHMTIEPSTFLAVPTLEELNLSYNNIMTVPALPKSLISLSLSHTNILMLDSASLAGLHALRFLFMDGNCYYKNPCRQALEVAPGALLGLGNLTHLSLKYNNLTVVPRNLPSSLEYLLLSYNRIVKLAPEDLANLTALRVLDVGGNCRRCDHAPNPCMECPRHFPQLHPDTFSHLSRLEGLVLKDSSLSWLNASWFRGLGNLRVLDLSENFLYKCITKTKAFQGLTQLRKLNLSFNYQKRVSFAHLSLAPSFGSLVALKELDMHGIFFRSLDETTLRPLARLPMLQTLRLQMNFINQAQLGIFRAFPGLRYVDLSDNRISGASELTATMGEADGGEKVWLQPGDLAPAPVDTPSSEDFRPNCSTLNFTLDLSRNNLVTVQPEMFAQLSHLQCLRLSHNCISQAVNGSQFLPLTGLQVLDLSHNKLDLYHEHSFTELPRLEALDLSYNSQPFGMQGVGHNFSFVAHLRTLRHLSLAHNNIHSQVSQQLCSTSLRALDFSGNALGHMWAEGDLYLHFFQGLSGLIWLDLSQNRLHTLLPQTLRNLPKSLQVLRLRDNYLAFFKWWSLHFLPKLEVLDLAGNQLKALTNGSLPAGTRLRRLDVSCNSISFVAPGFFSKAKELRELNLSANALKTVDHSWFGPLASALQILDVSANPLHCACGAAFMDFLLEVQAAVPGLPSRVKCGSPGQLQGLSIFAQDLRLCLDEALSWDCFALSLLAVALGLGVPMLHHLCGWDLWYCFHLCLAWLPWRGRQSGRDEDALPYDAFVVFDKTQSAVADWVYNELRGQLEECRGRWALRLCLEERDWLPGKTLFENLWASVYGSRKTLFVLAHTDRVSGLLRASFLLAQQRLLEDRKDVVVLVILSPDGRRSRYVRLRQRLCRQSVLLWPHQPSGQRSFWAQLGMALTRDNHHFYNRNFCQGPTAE
Test: TLR9 inhibition reporter assay (HEK-Blue SEAP);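 note: SEAP driven by IFN-β minimal promoter carrying five NF-κB and AP-1 sites, 22 h at 37 °C, compounds 0.05 nM–50 µM, inhibition scaled between agonist-plus-DMSO and reference-inhibitor wells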
Details: read-out: TLR9 IC50; HEK-Blue cells overexpressing human TLR9, ODN2006 5 nM stimulation, SEAP reporter

Compound	IC50 [nM]
Cc1cc(-c2[nH]c3cnc(C4CCC(N(C)C(C)C)CC4)c(F)c3c2C(C)C)cn2ncnc12 (stereo not drawn) [Example 261]	1270
COCCN1CCN(c2ncc3[nH]c(-c4cn5ncnc5c(C)c4C)c(C(C)C)c3c2F)CC1 [Example 424]	17700
COc1cc(-c2[nH]c3cnc(C4CCC(N(C)C5COC5)CC4)c(F)c3c2C(C)C)cn2ncnc12 (stereo not drawn) [Example 197]	1570
COc1cc(-c2[nH]c3cnc(C4CCC(NCC(C)(C)OC)C4)cc3c2C(C)C)cn2ncnc12 (stereo not drawn) [Example 179]	486
Cc1c(N2CCC(N3CCC3)CC2)ncc2[nH]c(-c3cc(C)c4ncnn4c3)c(C(C)C)c12 [Example 279]	1110
Cc1cc(-c2[nH]c3cnc(N4CCC(N(C)CC(N)=O)CC4)c(F)c3c2C(C)C)cn2ncnc12 [Example 158]	17500
CCN(C)C1CCC(c2cc3c(C(C)C)c(-c4cc(OC)c5ncnn5c4)[nH]c3cn2)CC1 (stereo not drawn) [Example 331]	3300
COCCN1CCN(c2ncc3[nH]c(-c4cc(OC)c5ncnn5c4)c(C(C)C)c3c2F)[C@H](C)C1 [Example 444]	19900
COc1cc(-c2[nH]c3cnc(N4CCC(NCC(C)(C)O)CC4)c(F)c3c2C(C)C)cn2ncnc12 [Example 156]	6430
Cc1c(-c2[nH]c3cnc(C4CCC(NCC(C)(C)C)CC4)cc3c2C(C)C)cn2ncnc2c1C (stereo not drawn) [Example 337]	777
CNCC(=O)N1CCN(c2ncc3[nH]c(-c4cc(OC)c5ncnn5c4)c(C(C)C)c3c2Cl)CC1 [Example 291]	494
COc1cc(-c2[nH]c3cnc(C4CCN(CC(=O)N(C)C)CC4)cc3c2C(C)C)cn2ncnc12 [Example 298]	459
Cc1c(-c2[nH]c3cnc(C4CCC(N5CC6(COC6)C5)CC4)c(C)c3c2C(C)C)cn2ncnc2c1C (stereo not drawn) [Example 142]	282
Cc1c(-c2[nH]c3cnc(C4CCC(NC(C)C)CC4)c(F)c3c2C(C)C)cn2ncnc2c1C (stereo not drawn) [Example 136]	620
COc1cc(-c2[nH]c3cnc(C4CCC(N5CCC5)CC4)cc3c2C(C)C)cn2ncnc12 (stereo not drawn) [Example 324]	283
CNC(=O)CN1CCC(c2ncc3[nH]c(-c4cc(OC)c5ncnn5c4)c(C(C)C)c3c2F)CC1 [Example 20]	6550
COc1cc(-c2[nH]c3cnc(N4CC5(CN(CC6CC6)C5)C4)c(F)c3c2C(C)C)cn2ncnc12 [Example 374]	5470
COCCN1CCN(c2ncc3[nH]c(-c4cc(OC)c5ncnn5c4)c(C(C)C)c3c2C)CC1 [Example 126]	2530
CNC(=O)CN1CCN(c2ncc3[nH]c(-c4cc(OC)c5ncnn5c4)c(C(C)C)c3c2F)CC1 [Example 359]	> 50000
